From patent US20230157952A1, “METHOD FOR IMPROVING THE STABILITY OF A PHARMACEUTICAL COMPOSITION COMPRISING A HIGH PENETRATION DRUG, AND THE PHARMACEUTICAL COMPOSITION OBTAINED THEREFROM” (Techfields Inc., priority 2020, published 2023)

Experiments:
[1] = Effect of temperature (and pH) on the stability of the solution (purity); assay type: physicochemical
[2] = Effect of concentration on the stability of the solution (purity over time); conditions: in water at 25° C.

SMILES: CCN(CC)CCOC(=O)C(C)c1ccc(CC(C)C)cc1.Cl (racemic)
- Purity (%) at day 21 (60° C.) ([1]; pH 1.02, 7% solution in water): 0%
- Purity(%) at day 21 (5° C.) ([1]; pH 1.02, 7% solution in water): 93.7 ± 0.3%
- Purity(%) at day 21 (25° C.) ([1]; pH 1.02, 7% solution in water): 73.0 ± 0.4%
- Purity(%) at day 21 (40° C.) ([1]; pH 1.02, 7% solution in water): 18.6 ± 0.4%
- Purity (%) at day 21 (60° C.) ([1]; pH 2.09, 7% solution in water): 0%
- Purity(%) at day 21 (5° C.) ([1]; pH 2.09, 7% solution in water): 97.6 ± 0.4%
- Purity(%) at day 21 (25° C.) ([1]; pH 2.09, 7% solution in water): 86.1 ± 0.3%
- Purity(%) at day 21 (40° C.) ([1]; pH 2.09, 7% solution in water): 30.4 ± 0.3%
- Purity (%) at day 21 (60° C.) ([1]; pH 3.00, 7% solution in water): 8.8 ± 0.3%
- Purity(%) at day 21 (25° C.) ([1]; pH 3.00, 7% solution in water): 96.5 ± 0.4%
- Purity(%) at day 21 (40° C.) ([1]; pH 3.00, 7% solution in water): 56.3 ± 0.4%
- Purity (%) at day 21 (60° C.) ([1]; pH 3.68, 7% solution in water): 16.4 ± 0.4%
- Purity(%) at day 21 (40° C.) ([1]; pH 3.68, 7% solution in water): 64.3 ± 0.4%
- Purity (%) at day 21 (60° C.) ([1]; pH 4.07, 7% solution in water): 22.6 ± 0.4%
- Purity(%) at day 21 (40° C.) ([1]; pH 4.07, 7% solution in water): 72.7 ± 0.3%
- Purity (%) at day 21 (60° C.) ([1]; pH 4.35, 7% solution in water): 18.8 ± 0.2%
- Purity(%) at day 21 (40° C.) ([1]; pH 4.35, 7% solution in water): 72.6 ± 0.3%
- Purity (%) at day 21 (60° C.) ([1]; pH 4.67, 7% solution in water): 10.3 ± 0.3%
- Purity(%) at day 21 (40° C.) ([1]; pH 4.67, 7% solution in water): 58.2 ± 0.4%
- Purity (%) at day 21 (60° C.) ([1]; pH 4.95, 7% solution in water): 3.9 ± 0.3%
- Purity(%) at day 21 (5° C.) ([1]; pH 4.95, 7% solution in water): 97.5 ± 0.4%
- Purity(%) at day 21 (25° C.) ([1]; pH 4.95, 7% solution in water): 95.4 ± 0.4%
- Purity(%) at day 21 (40° C.) ([1]; pH 4.95, 7% solution in water): 50.2 ± 0.4%
- Purity (%) at day 21 (60° C.) ([1]; pH 5.98, 7% solution in water): 0%
- Purity(%) at day 21 (5° C.) ([1]; pH 5.98, 7% solution in water): 96.1 ± 0.3%
- Purity(%) at day 21 (25° C.) ([1]; pH 5.98, 7% solution in water): 90.7 ± 0.3%
- Purity(%) at day 21 (40° C.) ([1]; pH 5.98, 7% solution in water): 29.9 ± 0.2%
- Purity (%) at day 21 (60° C.) ([1]; pH 6.98, 7% solution in water): 0%
- Purity(%) at day 21 (5° C.) ([1]; pH 6.98, 7% solution in water): 90.7 ± 0.4%
- Purity(%) at day 21 (25° C.) ([1]; pH 6.98, 7% solution in water): 78.6 ± 0.4%
- Purity(%) at day 21 (40° C.) ([1]; pH 6.98, 7% solution in water): 19.7 ± 0.4%
- Purity (%) at day 21 (60° C.) ([1]; pH 8.01, 7% solution in water): 0%
- Purity(%) at day 21 (5° C.) ([1]; pH 8.01, 7% solution in water): 81.6 ± 0.5%
- Purity(%) at day 21 (25° C.) ([1]; pH 8.01, 7% solution in water): 52.5 ± 0.5%
- Purity(%) at day 21 (40° C.) ([1]; pH 8.01, 7% solution in water): 0%

SMILES: CCN(CC)CCOC(=O)[C@H](C)c1ccc2cc(OC)ccc2c1.Cl (racemic)
- Purity (%) at day 21 (60° C.) ([1]; pH 1.02, 7% solution in water): 0%
- Purity(%) at day 21 (5° C.) ([1]; pH 1.02, 7% solution in water): 93.8 ± 0.2%
- Purity(%) at day 21 (25° C.) ([1]; pH 1.02, 7% solution in water): 72.2 ± 0.2%
- Purity(%) at day 21 (40° C.) ([1]; pH 1.02, 7% solution in water): 18.1 ± 0.3%
- Purity (%) at day 21 (60° C.) ([1]; pH 2.09, 7% solution in water): 0%
- Purity(%) at day 21 (25° C.) ([1]; pH 2.09, 7% solution in water): 86.3 ± 0.2%
- Purity(%) at day 21 (40° C.) ([1]; pH 2.09, 7% solution in water): 30.2 ± 0.4%
- Purity (%) at day 21 (60° C.) ([1]; pH 3.00, 7% solution in water): 7.9 ± 0.2%
- Purity(%) at day 21 (25° C.) ([1]; pH 3.00, 7% solution in water): 96.3 ± 0.2%
- Purity(%) at day 21 (40° C.) ([1]; pH 3.00, 7% solution in water): 56.7 ± 0.2%
- Purity (%) at day 21 (60° C.) ([1]; pH 3.68, 7% solution in water): 15.3 ± 0.4%
- Purity(%) at day 21 (40° C.) ([1]; pH 3.68, 7% solution in water): 63.7 ± 0.2%
- Purity (%) at day 21 (60° C.) ([1]; pH 4.07, 7% solution in water): 21.5 ± 0.3%
- Purity(%) at day 21 (40° C.) ([1]; pH 4.07, 7% solution in water): 72.5 ± 0.3%
- Purity (%) at day 21 (60° C.) ([1]; pH 4.35, 7% solution in water): 18.7 ± 0.2%
- Purity(%) at day 21 (40° C.) ([1]; pH 4.35, 7% solution in water): 72.3 ± 0.2%
- Purity (%) at day 21 (60° C.) ([1]; pH 4.67, 7% solution in water): 10.6 ± 0.2%
- Purity(%) at day 21 (40° C.) ([1]; pH 4.67, 7% solution in water): 58.5 ± 0.2%
- Purity (%) at day 21 (60° C.) ([1]; pH 4.95, 7% solution in water): 3.1 ± 0.3%
- Purity(%) at day 21 (25° C.) ([1]; pH 4.95, 7% solution in water): 95.5 ± 0.3%
- Purity(%) at day 21 (40° C.) ([1]; pH 4.95, 7% solution in water): 50.6 ± 0.2%
- Purity (%) at day 21 (60° C.) ([1]; pH 5.98, 7% solution in water): 0%
- Purity(%) at day 21 (5° C.) ([1]; pH 5.98, 7% solution in water): 96.1 ± 0.2%
- Purity(%) at day 21 (25° C.) ([1]; pH 5.98, 7% solution in water): 90.7 ± 0.3%
- Purity(%) at day 21 (40° C.) ([1]; pH 5.98, 7% solution in water): 30.3 ± 0.3%
- Purity (%) at day 21 (60° C.) ([1]; pH 6.98, 7% solution in water): 0%
- Purity(%) at day 21 (5° C.) ([1]; pH 6.98, 7% solution in water): 90.9 ± 0.2%
- Purity(%) at day 21 (25° C.) ([1]; pH 6.98, 7% solution in water): 70.8 ± 0.2%
- Purity(%) at day 21 (40° C.) ([1]; pH 6.98, 7% solution in water): 19.9 ± 0.3%
- Purity (%) at day 21 (60° C.) ([1]; pH 8.01, 7% solution in water): 0%
- Purity(%) at day 21 (5° C.) ([1]; pH 8.01, 7% solution in water): 81.9 ± 0.2%
- Purity(%) at day 21 (25° C.) ([1]; pH 8.01, 7% solution in water): 58.8 ± 0.2%
- Purity(%) at day 21 (40° C.) ([1]; pH 8.01, 7% solution in water): 0%

SMILES: CCN(CC)CCOC(=O)Cc1c(C)n(C(=O)c2ccc(Cl)cc2)c2ccc(OC)cc12.Cl [2-(diethylamino)ethyl 1-(4-chlorobenzoyl)-5-methoxy-2-methyl-1H-indole-3-acetate•HCl]
- Purity at Day 3 ([2]; 0.01 wt %): 84.2%
- Purity at Day 7 ([2]; 0.01 wt %): 72.9%
- Purity at Day 14 ([2]; 0.01 wt %): 61.3%
- Purity at Day 21 ([2]; 0.01 wt %): 53.4%
- Purity at Day 28 ([2]; 0.01 wt %): 45.5%
- Purity at hr 0 ([2]; 0.01 wt %): 98.0%
- Purity at Day 3 ([2]; 0.1 wt %): 96.3%
- Purity at Day 7 ([2]; 0.1 wt %): 93.6%
- Purity at Day 14 ([2]; 0.1 wt %): 88.9%
- Purity at Day 21 ([2]; 0.1 wt %): 84.7%
- Purity at Day 28 ([2]; 0.1 wt %): 78.7%
- Purity at hr 0 ([2]; 0.1 wt %): 98.2%
- Purity at Day 3 ([2]; 1 wt %): 97.2%
- Purity at Day 7 ([2]; 1 wt %): 96.1%
- Purity at Day 14 ([2]; 1 wt %): 94.0%
- Purity at Day 21 ([2]; 1 wt %): 92.4%
- Purity at Day 28 ([2]; 1 wt %): 91.2%
- Purity at hr 0 ([2]; 1 wt %): 98.3%
- Purity at Day 3 ([2]; 3 wt %): 97.8%
- Purity at Day 7 ([2]; 3 wt %): 97.2%
- Purity at Day 14 ([2]; 3 wt %): 96.0%
- Purity at Day 21 ([2]; 3 wt %): 95.0%
- Purity at Day 28 ([2]; 3 wt %): 94.1%
- Purity at hr 0 ([2]; 3 wt %): 98.4%
- Purity at Day 3 ([2]; 5 wt %): 98.3%
- Purity at Day 7 ([2]; 5 wt %): 98.0%
- Purity at Day 14 ([2]; 5 wt %): 97.7%
- Purity at Day 21 ([2]; 5 wt %): 97.1%
- Purity at Day 28 ([2]; 5 wt %): 96.5%
- Purity at hr 0 ([2]; 5 wt %): 98.5%
- Purity at Day 3 ([2]; 7 wt %): 98.4%
- Purity at Day 7 ([2]; 7 wt %): 98.2%
- Purity at Day 14 ([2]; 7 wt %): 98.0%
- Purity at Day 21 ([2]; 7 wt %): 97.7%
- Purity at Day 28 ([2]; 7 wt %): 97.4%
- Purity at hr 0 ([2]; 7 wt %): 98.5%
- Purity at Day 3 ([2]; 8 wt %): 98.4%
- Purity at Day 7 ([2]; 8 wt %): 98.3%
- Purity at Day 14 ([2]; 8 wt %): 98.0%
- Purity at Day 21 ([2]; 8 wt %): 97.8%
- Purity at Day 28 ([2]; 8 wt %): 97.4%
- Purity at hr 0 ([2]; 8 wt %): 98.6%
- Purity at Day 3 ([2]; 10 wt %): 98.4%
- Purity at Day 7 ([2]; 10 wt %): 98.3%
- Purity at Day 14 ([2]; 10 wt %): 98.2%
- Purity at Day 21 ([2]; 10 wt %): 98.0%
- Purity at Day 28 ([2]; 10 wt %): 97.6%
- Purity at hr 0 ([2]; 10 wt %): 98.5%
- Purity at Day 3 ([2]; 15 wt %): 98.4%
- Purity at Day 7 ([2]; 15 wt %): 98.2%
- Purity at Day 14 ([2]; 15 wt %): 98.1%
- Purity at Day 21 ([2]; 15 wt %): 98.0%
- Purity at Day 28 ([2]; 15 wt %): 97.5%
- Purity at hr 0 ([2]; 15 wt %): 98.5%
- Purity at Day 3 ([2]; 20 wt %): 98.4%
- Purity at Day 7 ([2]; 20 wt %): 98.5%
- Purity at Day 14 ([2]; 20 wt %): 98.2%
- Purity at Day 21 ([2]; 20 wt %): 98.1%
- Purity at Day 28 ([2]; 20 wt %): 97.7%
- Purity at hr 0 ([2]; 20 wt %): 98.6%
- Purity at Day 3 ([2]; 30 wt %): 98.5%
- Purity at Day 7 ([2]; 30 wt %): 98.3%
- Purity at Day 14 ([2]; 30 wt %): 98.0%
- Purity at Day 21 ([2]; 30 wt %): 98.1%
- Purity at Day 28 ([2]; 30 wt %): 97.5%
- Purity at hr 0 ([2]; 30 wt %): 98.5%
- Purity at Day 3 ([2]; 50 wt %): 98.5%
- Purity at Day 7 ([2]; 50 wt %): 98.4%
- Purity at Day 14 ([2]; 50 wt %): 98.1%
- Purity at Day 21 ([2]; 50 wt %): 97.9%
- Purity at Day 28 ([2]; 50 wt %): 97.6%
- Purity at hr 0 ([2]; 50 wt %): 98.6%
- Stability when the concentration is 0.1% or lower [2]: not stable
- Stability of the solution at a temperature higher than 40° C. and a pH lower than 3 or greater than 6 ([1]; 7% solution in water): not stable
